Measured values taken from patent US7199138B2, “Substituted anthranilamides for controlling invertebrate pests” (E. I. du Pont de Nemours and Company, priority 2001, dated 2007).

Compound `Cc1cc(NC(=O)c2ccccc2)cc(C(=O)NC(C)C)c1NC(=O)c1cc(C(F)(F)F)nn1-c1ncccc1Cl` has a melting point of 231 to 233 °C.
